According to patent publication US20240115881A1, “METHODS AND SYSTEMS FOR DETERMINING THE DISTRIBUTION OF RADIATION DOSE AND RESPONSE” (priority 2022, published 2024):
Values joined by “and” are separate entries in the source; they are usually repeats but may differ in a detail not shown here. Identical values can stand only once. Like-named read-outs stand apart in the source and are kept apart here.

What was measured:
V79 cells [1] = experiment: cellular uptake by flow cytometry (fluorescence intensity per cell, MFI); assay type: cell-based, Chinese hamster; conditions: linear least squares fit; for slope of net MFI versus extracellular drug concentration, low concentrations: Cdauno<0.6 μmol/L, Cdoxo<1 μmol/L; for slope of net MFI versus extracellular drug concentration, high concentrations: Cdauno>0.6 μmol/L (+1161), Cdoxo>1 μmol/L (+29)
Protocol: Briefly, flow cytometry was used to quantify their mean fluorescence intensity (MFI) per cell, <I>, as a function of the concentration of the agent in the cell culture medium. The net mean fluorescence intensities per cell, <I>net, were determined by subtracting control autofluorescence <I>control, according to the following equation: […]
^210Po-Citrate. The uptake of ^210Po-citrate was determined on a cell-by-cell basis by flow cytometric techniques, using ^210Po-free citrate. Briefly, V79 cells (2×10^6 cells/mL) were treated with 0-3 mmol/L of citrate and incubated on a rocker-roller as described earlier. Cellular uptake of citrate was tracked using an europium tetracycline (EuTc) conjugate. Samples were washed 2× with 10 mmol/L MOPS buffer (Sigma, St. Louis, catalog no. M3183), after a 30 min exposure to citrate. The cells were resuspended in 1 mL of MOPS buffer containing EuTc (Sigma, catalog nos. 203254 for Eu and T7660 for Tc), transferred into 7 ml polystyrene flow cytometry tubes (BD, catalog no. 352054), and were incubated at room temperature (˜22° C.) in the dark for 30 min. The final concentration of EuTc was 100 μmol/L. EuTc forms a ternary complex with citrate (EuTc-citrate) which is excitable at 488 nm, and its emission can be captured within the wavelengths transmitted by the 610/20 filter. After washing 2× with MOPS buffer, the samples were resuspended in 1 mL of MOPS buffer, passed 5× through a 21-gauge needle, and were analyzed by flow cytometry using an LSR II flow cytometer (BD), equipped with a 488 nm laser. Cellular incorporation of citrate, expressed in terms of the fluorescence intensity per cell or mean fluorescence intensity (MFI) of EuTc-citrate, was used as a surrogate measure cellular uptake of ^210Po-citrate.
To determine the cellular uptake of daunomycin and doxorubicin, the cells were treated with 0-10 μmol/L of each drug in MEMB and incubated on a rocker-roller for 2.5 h. The cells were washed 2× with phosphate buffered saline (PBS), resuspended in 1 mL of PBS, passed 5× through a needle, and were immediately subjected to flow cytometric analysis. The 488 nm laser was used to excite intracellular daunomycin and doxorubicin, and the emission spectra were captured within the wavelengths transmitted by the 575/26 and 530/30 filters, respectively. Cellular incorporation of drugs was also expressed as MFI.

V79 cells [2] = experiment: clonogenic survival after combined treatment with 210Po-citrate and a chemotherapy drug; assay type: cell-based, Chinese hamster; conditions: for effect on radiotoxicity of 210Po-citrate α-particles: 0.63 μM daunomycin or 2.50 μM doxorubicin plus graded 210Po-citrate, corrected for drug toxicity
Protocol: (§1) ^210PoCl4 in 2 mol/L HCI was obtained at 370 MBq/mL from Eckert&Ziegler Isotope Products (Valencia, CA, catalog no. 6310). ^210Po-citrate was prepared as follows. Briefly, PoCl4 solution was mixed with 1 mol/L sodium citrate in the ratio of 1:7 (final pH 5.8), and was diluted with MEMB to a volume of 4 mL (final pH 6.9). One milliliter of MEMB containing 210Po-citrate was added to the 1 mL of conditioned V79 cultures (2×10^6 cells/mL), to arrive at a concentration of 0-250 kBq/mL (pH 6.9-7.0). After incubating for 30 min, the cells were washed 2× with MEMB, resuspended in 2 mL of MEMB, and incubated on a rocker-roller for 2.5 h to simulate concomitant drug exposure. The cells were resuspended in a 5 mL of MEMB, passed 5× through a needle, and counted with a Beckman Coulter Model Z2 (Brea, CA). Aliquots (500 μL) of the cell suspension were transferred to vials, mixed with 5 mL Ecolume (MP Biomedical, Solon, OH, catalog no. 882470), and counted with a Beckman Coulter LS6500, and the mean activity per cell was determined (efficiency, 50% as per prior studies). Aliquots of about 5×10^5 cells were counted in triplicate for ^210Po activity and the cpm ranged from 10^3-10^5. The triplicate measurements kept statistical variations to a minimum. Each sample was serially diluted and plated in Falcon 60×15 mm tissue culture dishes for colony formation. Cultures were incubated for 7 days, and the colonies were fixed in 95% ethanol, stained with 0.01% Amido Black, washed in tap-water, air-dried, and counted.
After conditioning, the cell cultures were treated with daunomycin (Sigma, catalog no. D8809) or doxorubicin (Sigma, catalog no. 44583) to a final concentration of 0-10 μmol/L in MEMB. The tubes were returned to the rocker-roller for 2.5 h. The cells were then processed for colony formation as described above.
To evaluate cytotoxicity of combined treatment of V79 cells with ^210Po-citrate and daunomycin, or ^210Po-citrate and doxorubicin, the surviving fraction of clonogens was plotted as a function of mean cellular uptake of ^210Po (FIG. 9) and as a function of mean absorbed dose to the cell nucleus. When cells were only treated with ^210Po-citrate, the survival curve can be described by a 1-component exponential function. When cells were concomitantly treated with a single drug concentration and varying amounts of ^210Po-citrate, the dose-response curves followed a 2-component exponential function. The data corresponding to the combined treatments were then corrected for drug toxicity, by dividing the surviving fraction for each datum point by the surviving fraction for drug alone (SF=0.10), and replotted in FIG. 9. Both of the corrected cell survival curves emerged below those obtained for ^210Po-citrate alone.

[3] = tested on: Chinese hamster V79 lung fibroblasts; experiment: clonogenic survival assay (colony formation) after single-agent treatment; assay type: cell-based; conditions: for surviving fraction for drug alone: 0.63 μM daunomycin or 2.50 μM doxorubicin, 2.5 h; for mean lethal concentration: extracellular concentration for 37% survival, 2.5 h exposure
Protocol: The surviving fraction SF of cells exposed to the agent was assessed with a clonogenic survival assay and plotted as a function of several different variables including extracellular concentration, <I>net, absorbed dose (Gy), and mean cellular activity (mBq/cell). The resulting survival curves were of a 1- or 2-component exponential form. Analogous to the cellular activity and absorbed dose required to achieve 37% survival, a37 and D37, the net mean lethal fluorescence intensity of the drug required to achieve 37% survival, <I>net37 , can be defined similarly and obtained from plots of SF versus <I>net.
To evaluate ^210Po cytotoxicity, the surviving fraction was plotted as a function of EuTc-citrate net MFI, mean cellular uptake of ^210Po, and mean absorbed dose to the nucleus (FIG. 4A). […] The relationships between cell survival and EuTc-citrate net MFI or cellular ^210Po activity can be described by an exponential function SF=exp(−A/A1). The relationship between cell survival and drug net MFI (or extracellular concentration) for daunomycin and doxorubicin are illustrated in FIGS. 4B and 4C, respectively. For both drugs, clonogenic survival and cellular drug uptake (as determined by net MFI) are related via two component exponential functions SF=b exp(−A/A1)+(1-b) exp(−A/A2). A is the intracellular activity of ^210Po-citrate, absorbed dose to the cell nucleus, or drug concentration. Least squares fits of the survival data to this function were performed. The variable b is a fitted parameter.
Chinese hamster V79 lung fibroblasts were used. Two different formulations of minimum essential media (MEMA and MEMB) were used, as known in the literature. All media and supplements were Gibco (Carlsbad, CA), including fetal calf serum (catalog no. 10437, lot no. 539574). For routine maintenance, cells were grown as monolayers in Falcon 25-cm^2 tissue culture flasks (BD, Franklin Lakes, NJ, catalog no. 353082) at 37° C., 5% CO2-95% air, and subcultured twice weekly. For experiments, V79 cells (passage 4-11) were transferred into Falcon 225-cm^2 flasks (BD, catalog no. 353138), and were used upon reaching 80%-90% confluence.
Cells grown in 225-cm^2 flasks were trypsinized (0.25% trypsin, Gibco, catalog no. 25200-056), and MEMB was added to obtain 2×10^6 cells/mL. Aliquots of 1 mL were placed in Falcon 17×100 mm polypropylene tubes (BD, catalog no. 352018) and placed on a rocker-roller (Thermo Fisher, Fair Lawn, NJ) for 3 hours at 37° C. with 5% CO2 and 95% air. After this conditioning period, cells were treated with drug or radiochemical. Cell cultures were exposed to radiochemical and drugs for 0.5 and 2.5 h, respectively.
as §1, with “Each sample was serially diluted and plated in Falcon 60×15 mm tissue culture dishes for colony formation. Cultures were incubated for 7 days, and the colonies were fixed in 95% ethanol, stained with 0.01% Amido Black, washed in tap-water, air-dried, and counted.” left out

[4] = tested on: Chinese hamster V79 lung fibroblasts; conditions: obtained previously, older S values; cited from earlier work
V79 cells [5] = experiment: cellular 210Po activity, biologic clearance and cellular dosimetry (liquid scintillation counting); assay type: cell-based, Chinese hamster; conditions: for intracellular 210Po activity: corresponding to 0.1 mmol/L citrate
Protocol: The absorbed dose to the cell nucleus was determined as known in the art. Since cells were treated with ^210Po-citrate as a single-cell suspension and were subsequently seeded for colony formation, the small contribution of cross-irradiation from neighboring cells in the colony can be ignored because it is essentially counterbalanced by the reduction in self-dose caused by flattening of cells during the colony forming period. The data was least-squares fitted to obtain a mean biologic half-time of 11.6 h. […] This Tc, the maintenance period of 2.5 h, the subcellular distribution of ^210Po-citrate (28% nucleus, 72% cytoplasm) for V79 cells and published S values, were used to calculate a mean absorbed dose to the cell nucleus of 5.8 Gy/mBq of ^210Po incorporated into the cell.
as §1
To determine the biologic clearance of ^210Po from the cells, 4×10^6 cells/mL were treated with ^210Pocitrate as described above. After two washes with MEMB, the cells were resuspended in 5 mL of MEMB, passed 5× through a needle, and Coulter counted. Aliquots of 500 μL of cells were transferred to vials and mixed with Ecolume. The remaining cell suspension was plated into 25-cm^2 flasks (1.0, 0.5, 0.5, 0.2 and 0.2×10^6 cells/flask). The cultures were harvested after 24, 48, 72, and 96 h, respectively. Each sample was processed for cell counting and liquid scintillation counting as described. All vials were counted after the last harvest. The ratio of cellular activity at each time point to that immediately after treatment was calculated and plotted.

[6] = tested on: MDA-MB-468 human breast cancer cell line grown as spheroids; conditions: cited from earlier work
[7] = 0.63 μM daunomycin + 210Po-citrate

COc1cccc2c1C(=O)c1c(O)c3c(c(O)c1C2=O)C[C@@](O)(C(=O)CO)C[C@@H]3O[C@H]1C[C@H](N)[C@H](O)[C@H](C)O1 [doxorubicin]
slope of net MFI versus extracellular drug concentration, low concentrations (V79 cells [1]): 61 (μmol/L)^−1 | slope of net MFI versus extracellular drug concentration, high concentrations (V79 cells [1]): 40 (μmol/L)^−1 | effect on radiotoxicity of 210Po-citrate α-particles (V79 cells [2]): enhance the radiotoxicity of α-particles | dose dependence of the increased kill (V79 cells [2]; 2.50 μM doxorubicin + 210Po-citrate): dose-dependent increase | surviving fraction for drug alone [3]: 0.10 | mean lethal concentration ([3]; V79 cells): 1.26 µmol/L

^210Po-citrate
former value of mean lethal dose [4]: 0.7 Gy | subcellular distribution, cytoplasm (V79 cells [5]; V79 cells): 72% | subcellular distribution, nucleus (V79 cells [5]; V79 cells): 28% | mean biologic half-time (V79 cells [5]; clearance of 210Po from V79 cells): 11.6 h | intracellular 210Po activity (V79 cells [5]): 0.03 mBq/cell | intracellular 210Po activity (V79 cells [5]; listed as 210Po): 0.03 mBq/cell and ~0.02 mBq/cell | effective half-time Te (V79 cells [5]; from biologic half-time and physical half-life of 138 d): 11.6 h | cell kill at this activity ([3]; 0.1 mmol/L citrate): no significant cell kill | atoms of 210Po corresponding to the mean lethal uptake ([3]; 0.21 mBq/cell): about 3600 atoms | uptake giving the mean lethal absorbed dose ([3]; V79 cells): 0.21 mBq/cell | mean lethal absorbed dose ([3]; absorbed dose to the cell nucleus, V79 cells): 1.2 Gy | cell killing observed ([3]; over the range of cellular activities employed): less than 2 logs

COc1cccc2c1C(=O)c1c(O)c3c(c(O)c1C2=O)C[C@@](O)(C(C)=O)C[C@@H]3O[C@H]1C[C@H](N)[C@H](O)[C@H](C)O1 [daunomycin]
slope of net MFI versus extracellular drug concentration, low concentrations (V79 cells [1]): 5922 (μmol/L)^−1 | slope of net MFI versus extracellular drug concentration, high concentrations (V79 cells [1]): 2480 (μmol/L)^−1 | absorbed dose beyond which the enhancement was independent of dose (V79 cells [2]; [7]): about 0.5 Gy | cellular activity beyond which the enhancement was independent of dose (V79 cells [2]; [7]): ~0.09 mBq/cell | effect on radiotoxicity of 210Po-citrate α-particles (V79 cells [2]): enhance the radiotoxicity of α-particles | surviving fraction for drug alone [3]: 0.10 | mean lethal concentration ([3]; V79 cells): 0.24 µmol/L | lethality relative to doxorubicin ([3]; low extracellular concentrations, V79 cells): ~5 ×

111In-DTPA-human epidermal growth factor [^111In-EGF]
activity distribution, cell surface ([6]; 24 h treatment): 62% | activity distribution, cytoplasm ([6]; 24 h treatment): 22% | activity distribution, nucleus ([6]; 24 h treatment): 16% | distribution of 111In in the spheroid ([6]; after a 24-h treatment): fully internalized | penetration into the spheroid ([6]; after a 1 h treatment): ~20 μm | distribution of 111In in the spheroid ([6]; treated for 1 h): accumulated mainly on the periphery of the spheroid
